The record followed here is PubChem BioAssay (NCI).

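Results reflect a 48-hour exposure of cells in 96-well plates to compound at five concentrations. GI50 = concentration required for 50% inhibition of growth. TGI marks complete inhibition of growth.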

The subject of one assay is NCI-H460 lung. In words: NCI anticancer screen, dose series, 48 h.
`CC(=O)O[C@]12CCCCCC1C1(O)C(O)CCC[C@H]12` (stereo partly drawn): the TGI was more than 100 µM.
As for `COCOc1ccc(Cn2c(=O)n(C)c(=O)c3c2ncn3C)cc1[N+](=O)[O-]`, the TGI was more than 100 µM.
On the same count and under the same terms, the figure for `Cc1c2c(n(CCc3ccc(Cl)cc3)c1C)NN=C(C#N)S2(=O)=O` is more than 100 µM; for `N#CCCN(CCC#N)c1ccc(/C=C2\N=C(c3ccccc3)N(c3ccc(Cl)cc3)C2=O)cc1` it is more than 100 µM; for `Cc1c(S(=O)(=O)/N=C(\N)Nc2ccc(Cl)cc2)sc2ccc(Cl)cc12` it is 33.6 µM.
On the same count and under the same terms, to `BrC/C=C/C[P+](c1ccccc1)(c1ccccc1)c1ccccc1` belongs more than 100 µM.
For the compound `COc1cc([N+](=O)[O-])c(OC)cc1-c1nc2sc(Cl)cn2c1/C=N/Nc1ccccn1`, the GI50 was 15.8 µM and the TGI was more than 50 µM.
`C=C[C@@H]1C(CO)=CCC2[C@H]1CCC1C(C)(C)C(=O)CC[C@]21C` (stereo partly drawn) displayed a TGI of more than 100 µM.
On the same count and under the same terms, the figure for `COc1ccc2nc3cc(Cl)ccc3c(NCCCNCCCNc3c4ccc(Cl)cc4nc4ccc(OC)cc34)c2c1` is 0.0131 µM; for `C=CCNC(=S)/N=C/c1c(O)c2ccccc2oc1=O` it is more than 100 µM; for `CCOC(=O)c1c(-c2ccc(OC)cc2)c(C#N)c(=S)n(C2OC(COC(C)=O)C(OC(C)=O)C(OC(C)=O)C2OC(C)=O)c1C` (stereo not drawn) it is more than 100 µM.
On the same count and under the same terms, the figure for `C1=CC2=CC=CC3c4nc5ccc6ccccc6c5nc4C(=C1)C23` (stereo not drawn) is more than 100 µM; for `CC(=O)N(C(C)=O)C1=C2c3ccccc3N(S(=O)(=O)c3ccccc3)C2n2c(=O)n(-c3ccccc3)c(=O)n2C1` (stereo not drawn) it is 42.3 µM.
Same read-out and setting: to `C=CCn1c(=O)ccn(COCCO)c1=O` belongs more than 100 µM; to `O=C(NC(Cc1ccc(I)cc1)C(=O)O)c1ccc(I)cc1` (stereo not drawn), more than 100 µM.
`CCCCC1c2c([nH]c3ccccc23)C2C(=O)N(c3ccc(OC)cc3)C(=O)C2C1CCC` (stereo not drawn): the TGI is more than 10 µM.
Still for that read-out and setting: the figure for `C(=N\NC1=NCCCN1)/c1ccc2ccccc2c1` is 17.4 µM.
Still for that read-out and setting: the figure for `O=C(N=Nc1cc(Cl)ccc1Cl)NNc1cc(Cl)ccc1Cl` is 44.5 µM; for `CSc1cc(Cl)c(C)cc1S(=O)(=O)NC(=O)NNc1ccc(Cl)cc1` it is more than 100 µM; for `O=C(CNc1ccccc1Cl)Nn1c(-c2ccccc2)nc2ccccc2c1=O` it is more than 100 µM.
Still for that read-out and setting: to `O=c1ccc2cc3ccc4cccc5ccc(c2o1)c3c45` belongs more than 100 µM; to `CC1(C)N=C(C(N)=O)c2ncn(CCCO)c2N1`, more than 100 µM; to `O=S(=O)(O)c1cc2ccc1/C=C\c1ccc(cc1S(=O)(=O)O)N=Nc1ccc(c(S(=O)(=O)O)c1)/C=C\c1ccc(cc1S(=O)(=O)O)N=N2`, more than 100 µM.

For another assay, the system named is HCT-116 colon. As to the kind of experiment: NCI anticancer screen, dose series, 48 h.
As for `CC(=O)O[C@]12CCCCCC1C1(O)C(O)CCC[C@H]12` (stereo partly drawn), the TGI was more than 100 µM.
On to `CC(C)(C)NC(=O)/C(=C\Sc1ccccc1)c1ccc2c(c1)OCO2`, for which the TGI is 65.8 µM.
Still for that read-out and setting: to `COCOc1ccc(Cn2c(=O)n(C)c(=O)c3c2ncn3C)cc1[N+](=O)[O-]` belongs more than 100 µM; to `Cc1c2c(n(CCc3ccc(Cl)cc3)c1C)NN=C(C#N)S2(=O)=O`, more than 100 µM.
Regarding `COc1ccc2cc(-c3ccc(-c4ccc(C(=N)N)s4)s3)ccc2c1`, the GI50 is 2.08 µM and the TGI was 4.11 µM.
The compound `N#CCCN(CCC#N)c1ccc(/C=C2\N=C(c3ccccc3)N(c3ccc(Cl)cc3)C2=O)cc1` yielded a TGI of more than 100 µM.
On the same count and under the same terms, to `Cc1c(S(=O)(=O)/N=C(\N)Nc2ccc(Cl)cc2)sc2ccc(Cl)cc12` belongs 31.5 µM.
The same measure, in the same setting: to `BrC/C=C/C[P+](c1ccccc1)(c1ccccc1)c1ccccc1` belongs more than 100 µM.
Same read-out and setting: to `Cc1cc(=O)c2c([nH]1)NS(=O)(=O)NC2=O` belongs more than 100 µM.
Regarding `CC(=O)N/N=C1\NC(=O)C[C@H]2[C@@H]3CC=C4C[C@@H](OC(C)=O)CC[C@]4(C)[C@H]3CC[C@]12C`, the TGI was more than 100 µM.
The compound `C=C[C@@H]1C(CO)=CCC2[C@H]1CCC1C(C)(C)C(=O)CC[C@]21C` (stereo partly drawn) gave a TGI of more than 100 µM.
In turn, `C=CCNC(=S)/N=C/c1c(O)c2ccccc2oc1=O` came in with a TGI of more than 100 µM.
Still for that read-out and setting: to `CCOC(=O)c1c(-c2ccc(OC)cc2)c(C#N)c(=S)n(C2OC(COC(C)=O)C(OC(C)=O)C(OC(C)=O)C2OC(C)=O)c1C` (stereo not drawn) belongs more than 100 µM; to `C1=CC2=CC=CC3c4nc5ccc6ccccc6c5nc4C(=C1)C23` (stereo not drawn), more than 100 µM; to `O=C(CCCN1CCC2(CC1)CC(=O)N(N1CCOCC1)C2=O)c1ccccc1`, more than 100 µM.
`CC(=O)N(C(C)=O)C1=C2c3ccccc3N(S(=O)(=O)c3ccccc3)C2n2c(=O)n(-c3ccccc3)c(=O)n2C1` (stereo not drawn) registered a TGI of more than 100 µM.
In turn, `COc1ccc(C(OCC2OC(n3cc(C)c(=O)[nH]c3=O)CC2n2cc(Cn3cc(F)c(=O)[nH]c3=O)nn2)(c2ccccc2)c2ccccc2)cc1` (stereo not drawn) displayed a TGI of 13.2 µM.
Still for that read-out and setting: the figure for `O=C(NC(Cc1ccc(I)cc1)C(=O)O)c1ccc(I)cc1` (stereo not drawn) is more than 100 µM.
Still for that read-out and setting: to `CCCCC1c2c([nH]c3ccccc23)C2C(=O)N(c3ccc(OC)cc3)C(=O)C2C1CCC` (stereo not drawn) belongs 7.56 µM; to `C(=N\NC1=NCCCN1)/c1ccc2ccccc2c1`, 22.4 µM.
`O=C(N=Nc1cc(Cl)ccc1Cl)NNc1cc(Cl)ccc1Cl` came in with a TGI of 33.6 µM.
Same read-out and setting: to `CSc1cc(Cl)c(C)cc1S(=O)(=O)NC(=O)NNc1ccc(Cl)cc1` belongs more than 100 µM; to `O=C(CNc1ccccc1Cl)Nn1c(-c2ccccc2)nc2ccccc2c1=O`, more than 100 µM; to `CC1(C)N=C(C(N)=O)c2ncn(CCCO)c2N1`, more than 100 µM.
On the same count and under the same terms, the figure for `O=S(=O)(O)c1cc2ccc1/C=C\c1ccc(cc1S(=O)(=O)O)N=Nc1ccc(c(S(=O)(=O)O)c1)/C=C\c1ccc(cc1S(=O)(=O)O)N=N2` is more than 100 µM.

In a further assay the test system is IGROV1 ovarian. As to the kind of experiment: NCI anticancer screen, dose series, 48 h.
As to `CC(C)(C)NC(=O)/C(=C\Sc1ccccc1)c1ccc2c(c1)OCO2`, the TGI was more than 100 µM.
On the same count and under the same terms, to `COCOc1ccc(Cn2c(=O)n(C)c(=O)c3c2ncn3C)cc1[N+](=O)[O-]` belongs more than 100 µM; to `Cc1c2c(n(CCc3ccc(Cl)cc3)c1C)NN=C(C#N)S2(=O)=O`, more than 100 µM.
On to `COc1ccc2cc(-c3ccc(-c4ccc(C(=N)N)s4)s3)ccc2c1`, for which the GI50 was 2.27 µM and the TGI was found to be 5.45 µM.
In the case of `N#CCCN(CCC#N)c1ccc(/C=C2\N=C(c3ccccc3)N(c3ccc(Cl)cc3)C2=O)cc1`, the TGI is more than 100 µM.
`Cc1c(S(=O)(=O)/N=C(\N)Nc2ccc(Cl)cc2)sc2ccc(Cl)cc12`: the TGI worked out at 31.9 µM.
In the case of `BrC/C=C/C[P+](c1ccccc1)(c1ccccc1)c1ccccc1`, the TGI was more than 100 µM.
In turn, `Cc1cc(=O)c2c([nH]1)NS(=O)(=O)NC2=O` had a TGI of more than 100 µM.
Turning to `COc1cc([N+](=O)[O-])c(OC)cc1-c1nc2sc(Cl)cn2c1/C=N/Nc1ccccn1`, the GI50 is more than 50 µM and the TGI is more than 50 µM.
For `CC(=O)N/N=C1\NC(=O)C[C@H]2[C@@H]3CC=C4C[C@@H](OC(C)=O)CC[C@]4(C)[C@H]3CC[C@]12C`, the TGI is more than 100 µM.
Turning to `C=C[C@@H]1C(CO)=CCC2[C@H]1CCC1C(C)(C)C(=O)CC[C@]21C` (stereo partly drawn), the TGI is more than 100 µM.
